These results are taken from ChEMBL document CHEMBL4765250, “Discovery of hydrazone containing thiadiazoles as Mycobacterium tuberculosis growth and enoyl acyl carrier protein reductase (InhA) inhibitors” (Eur J Med Chem, 2020).

The subject of data set [1] is Mycobacterium tuberculosis. Kind of data set: Antitubercular activity against Mycobacterium tuberculosis H37Rv measured after 7 days by MABA method. It is filed as functional. As to conditions: 168 h, time 7 day. Background: Resazurin is reduced to fluorescent resorufin, in cell work by metabolically active cells.
The subject of data set [2] is Mycobacterium tuberculosis. Kind of data set: Antitubercular activity at Mycobacterium tuberculosis H37Rv in nutrition starved condition medium assessed as log reduction of cell growth at 10 ug/ml measured after 7 days by MPN method. In kind it is functional. The conditions noted are these: dose 10 µg/ml; time 7 day.
Data set [3] deals with T1, Enoyl-[acyl-carrier-protein] reductase [NADH] (Mycobacterium tuberculosis) (UniProt P9WGR1).
T1 sequence (whole entry): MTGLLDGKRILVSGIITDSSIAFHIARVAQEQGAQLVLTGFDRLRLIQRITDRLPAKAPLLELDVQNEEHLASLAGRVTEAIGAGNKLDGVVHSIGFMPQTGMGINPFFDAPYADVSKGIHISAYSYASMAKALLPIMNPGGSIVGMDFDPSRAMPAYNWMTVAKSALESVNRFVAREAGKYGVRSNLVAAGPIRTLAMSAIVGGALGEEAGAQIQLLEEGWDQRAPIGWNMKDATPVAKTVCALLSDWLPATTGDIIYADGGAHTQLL
As to the kind of experiment: Inhibition of wild type InhA in Mycobacterium tuberculosis H37Rv using trans-2-dodecenoyl-coenzyme A as substrate at 5 uM.

Data set [4] is described as follows: Cytotoxicity against mouse RAW264.7 cells assessed as decrease cell viability at 50 ug/ml measured after 48 hrs by MTT assay. It is filed as cell-based. The conditions noted are these: at 50 µg/mL, read-out: INH. In general terms: Tetrazolium assays rely on reduction of a dye to a coloured formazan, in cell work by metabolically active cells.
A short description of data set [5]: Solubility of compound in aqueous buffer at pH 6.8. It is filed as physicochemical.

≈ marks a conversion by molar mass, not a printed value. Where only a bound is given, the exact number is not on record here.

Turning to `Clc1ccc(Nc2nc(N/N=C/c3ccccc3)ns2)c(Cl)c1`, in data set [1], the minimal inhibitory concentration (MIC) was 4.29 µM (≈ 1.56 µg/mL).

In data set [1], `Cc1ccc(/C=N/Nc2nsc(Nc3ccc([N+](=O)[O-])cc3)n2)cc1` returned a minimum inhibitory concentration (MIC) above 70.6 µM.

For `Cc1ccc(/C=N/Nc2nsc(Nc3ccccc3)n2)cc1`, in data set [1], the minimum inhibitory concentration (MIC) was above 80.9 µM.

With `NNC(=O)c1ccncc1` [ISONIAZID], the FC in data set [2] was 1.4. Further, it took 0.36 µM (≈ 0.0494 µg/mL) to inhibit growth in data set [1] (MIC).

`CO[C@H]1/C=C/O[C@@]2(C)Oc3c(C)c(O)c4c(O)c(c(/C=N/N5CCN(C)CC5)c(O)c4c3C2=O)NC(=O)/C(C)=C\C=C\[C@H](C)[C@H](O)[C@@H](C)[C@@H](O)[C@@H](C)[C@H](OC(C)=O)[C@@H]1C` [RIFAMPIN]: the FC in data set [2] was 1.6. Also, the MIC in data set [1] was 0.12 µM (≈ 0.0988 µg/mL).

Regarding `CC[C@@H](CO)NCCN[C@@H](CC)CO` [ETHAMBUTOL], it took 7.6 µM (≈ 1.55 µg/mL) to inhibit growth in data set [1] (MIC).

The molecule `COc1ccc(Nc2nc(N/N=C/c3ccc(C)cc3)ns2)cc1` showed a minimal inhibitory concentration (MIC) in data set [1] above 73.8 µM.

As to `Cc1ccc(/C=N/Nc2nsc(Nc3ccc(Br)cc3)n2)cc1`, the MIC in data set [1] is above 64.4 µM.

`Cc1ccc(/C=N/Nc2nsc(Nc3ccc(C(F)(F)F)cc3)n2)cc1` had an inhibition in data set [3] of 35%. The molecule also showed an MIC in data set [1] of 16.6 µM (≈ 6.26 µg/mL). In data set [4], the cytotoxicity at 48 h, 50 ug/ml amounted to 29.1%.

In data set [3], `Cc1ccc(/C=N/Nc2nsc(Nc3ccc(Cl)cc3Cl)n2)cc1` displayed an inhibition of 48%. This molecule also showed an MIC in data set [1] of 8.27 µM (≈ 3.13 µg/mL). For the same molecule, in data set [4], the cytotoxicity at 48 h, 50 ug/ml was 33.1%.

For the molecule `Cc1ccc(/C=N/Nc2nsc(Nc3ccc(F)cc3)n2)cc1`, in data set [3], the inhibition is 26%. For the same molecule, in data set [1], the minimal inhibitory concentration (MIC) is above 76.5 µM.

On to `Cc1ccc(Nc2nc(N/N=C/c3ccccc3)ns2)cc1`, for which the FC in data set [2] was 2.4. The same molecule returned an inhibition in data set [3] of 48%. The molecule also returned an MIC in data set [1] of 2.52 µM (≈ 0.78 µg/mL). Further, the cytotoxicity at 48 h, 50 ug/ml in data set [4] was 31.5%.

`Cc1ccc(/C=N/Nc2nsc(Nc3ccc(I)cc3)n2)cc1` yielded a minimum inhibitory concentration (MIC) in data set [1] of 3.59 µM (≈ 1.56 µg/mL). For the same molecule, the cytotoxicity at 48 h, 50 ug/ml in data set [4] stood at 21.1%.

Molecule `Cc1ccc(/C=N/Nc2nsc(Nc3ccc(C)cc3)n2)cc1` gave an MIC in data set [1] above 77.4 µM.

With `O=[N+]([O-])c1ccc(Nc2nc(N/N=C/c3ccccc3)ns2)cc1`, 73.5 µM (≈ 25 µg/mL) was the least that counted as inhibitory in data set [1] (MIC).

For the molecule `COc1ccc(Nc2nc(N/N=C/c3ccccc3)ns2)cc1`, the FC in data set [2] stood at 2.2. For the same molecule, the minimal inhibitory concentration (MIC) in data set [1] amounted to 2.4 µM (≈ 0.781 µg/mL). Moreover, in data set [4], the cytotoxicity at 48 h, 50 ug/ml was 24.6%.

For `Brc1ccc(Nc2nc(N/N=C/c3ccccc3)ns2)cc1`, the inhibition in data set [3] turned out to be 39%. In data set [1], the minimal inhibitory concentration (MIC) came out at 4.17 µM (≈ 1.56 µg/mL). Moreover, in data set [4], the cytotoxicity at 48 h, 50 ug/ml was 25.8%.

`Ic1ccc(Nc2nc(N/N=C/c3ccccc3)ns2)cc1`: in data set [5], the solubility result is recorded as “Insoluble”. In data set [1], this molecule came in with an MIC of 59.4 µM (≈ 25 µg/mL).

Molecule `Fc1ccc(Nc2nc(N/N=C/c3ccccc3)ns2)cc1` returned an MIC in data set [1] above 79.9 µM.

In turn, `FC(F)(F)c1ccc(Nc2nc(N/N=C/c3ccccc3)ns2)cc1` registered a minimum inhibitory concentration (MIC) in data set [1] of 34.4 µM (≈ 12.5 µg/mL).

With `C(=N\Nc1nsc(Nc2ccccc2)n1)/c1ccccc1`, the MIC in data set [1] was above 84.8 µM.

As usually defined, the MIC is the lowest concentration that inhibits growth of the organism. Read a high MIC as weaker potency. What is called inhibition is the share of the control response that was lost under treatment.
